From patent publication US9073903B2, “Imidazole-2,4-dione inhibitors of casein kinase 1” (Jasco Pharmaceuticals, LLC, priority 2010, dated 2015)
Read-outs that look alike come from different tables or passages of the source.

Experiments:
Assay type in all cases: cell-based
DU145 cells = test: Inhibition of DU145 cells (MTS cell proliferation); settings: for inhibition at 0.4 µM / inhibition at 0.8 µM / inhibition at 1.6 µM / inhibition at 3.2 µM / inhibition at 6.25 µM / inhibition at 12.5 µM / inhibition at 25 µM / inhibition at 50 µM / inhibition at 100 µM / IC50: Homo sapiens, DU-145; for inhibition at 0.4 µM: 0.400 uM; for inhibition at 0.8 µM: 0.800 uM; for inhibition at 1.6 µM: 1.600 uM; for inhibition at 3.2 µM: 3.200 uM; for inhibition at 6.25 µM: 6.250 uM; for inhibition at 12.5 µM: 12.500 uM
Protocol: Inhibition of DU145 Cells Cells: DU145 cells, ATCC Passage unknown, Mycoplasma free. Medium: DMEM Medium (GIBCO Cat #11995073) supplemented with 10% fetal bovine serum (Hyclone Cat #SH30396.03). Seeding: 750 cells/well (100 μL) into 96-wells plate, incubated overnight at 37° C. in a humidified, 5% CO2 atmosphere. Treatment: Test compounds and Gemcitabine were prepared in a serial dilution (1:2) by culture medium. Fifty microliters (50 uL) of serially diluted solutions were added into each well. The final concentrations of the positive control and test compounds were shown in the graphs. The cells were incubated for 72 hours after addition of the test compounds. MTS: 15 uL of MTS solution (Promega Cat #G5430) was added into each well and incubated with cells for 4 hours at 37° C. in a humidified, 5% CO2 atmosphere. Measurement: Absorbance at 490 nm was measured using MD Spectramax Plus384 spectrophotometer. The regression curves were calculated by the GraphPad Prism 5 using “log(inhibitor) vs response—variable slope”.

MDA-MB-468 cells = test: Inhibition of MDA-MB-468 cells (MTS cell proliferation); settings: for OD value 1 / OD value 2: 490 nm; for OD value 1 / OD value 2 / inhibition at 0.4 µM / inhibition at 0.8 µM / inhibition at 1.6 µM / inhibition at 3.2 µM / inhibition at 6.25 µM / inhibition at 12.5 µM / inhibition at 25 µM / inhibition at 50 µM / inhibition at 100 µM: 72 h; for inhibition at 0.4 µM / inhibition at 0.8 µM / inhibition at 1.6 µM / inhibition at 3.2 µM / inhibition at 6.25 µM / inhibition at 12.5 µM / inhibition at 25 µM / inhibition at 50 µM / inhibition at 100 µM / IC50: Homo sapiens
Protocol: Inhibition of MDA-MB-468 Cells Cells: MDA-MB-468 cells, ATCC Passage unknown, Mycoplasma free. Medium: RPMI-1640 Medium (GIBCO Cat #22400121) supplemented with 10% fetal bovine serum (Hyclone Cat #SH30396.03). Seeding: 2,000 cells/well (100 ul) into 96-wells plate, incubated overnight at 37° C. in a humidified, 5% CO2 atmosphere. Treatment: Test compounds and Gemcitabine were prepared in a serial dilution (1:2) by culture medium. Fifty microliters (50 uL) of serially diluted solutions were added into each well. The final concentrations of the positive control and test compounds were shown in the graphs. The cells were incubated for 72 hours after addition of the test compounds. MTS: 15 uL of MTS solution (Promega Cat #G5430) was added into each well and incubated with cells for 4 hours at 37° C. in a humidified, 5% CO2 atmosphere. Measurement: Absorbance at 490 nm was measured using MD Spectramax Plus384 spectrophotometer. The regression curves were calculated by the GraphPad Prism 5 using “log(inhibitor) vs response—variable slope”.

Jurkat = test: Cell proliferation study Jurkat
[1] = 72 hours, replicate 1, read-out: % of inhibition 1
[2] = 72 hours, replicate 2, read-out: % of inhibition 2

SMILES: Nc1ccn([C@@H]2O[C@H](CO)[C@@H](O)C2(F)F)c(=O)n1 [Gemcitabine]
- inhibition at 0.4 µM (DU145 cells; [1]): 17.4%
- inhibition at 0.4 µM (DU145 cells; [2]): 15.6%
- inhibition at 0.8 µM (DU145 cells; [1]): 35.2%
- inhibition at 0.8 µM (DU145 cells; [2]): 32.9%
- inhibition at 1.6 µM (DU145 cells; [1]): 59%
- inhibition at 1.6 µM (DU145 cells; [2]): 54.3%
- inhibition at 3.2 µM (DU145 cells; [1]): 95.5%
- inhibition at 3.2 µM (DU145 cells; [2]): 96.2%
- inhibition at 6.25 µM (DU145 cells; [1]): 96.8%
- inhibition at 6.25 µM (DU145 cells; [2]): 96.2%
- inhibition at 12.5 µM (DU145 cells; [1]): 96.6%
- inhibition at 12.5 µM (DU145 cells; [2]): 97.3%
- inhibition at 25 µM (DU145 cells; [1]): 97%
- inhibition at 25 µM (DU145 cells; [2]): 96.2%
- inhibition at 50 µM (DU145 cells; [1]): 97.4%
- inhibition at 50 µM (DU145 cells; [2]): 98.9%
- inhibition at 100 µM (DU145 cells; [1]): 97.9%
- inhibition at 100 µM (DU145 cells; [2]): 97.2%
- IC50 (DU145 cells; Table 17, read-out: DU145* 50% inhibition concentration): 1.28 µM
- IC50 (DU145 cells; Table 26, DU145, 72 hours, read-out: 50% viability conc.): 1.28 µM
- IC50 (DU145 cells; Table 26, DU145, 72 hours, read-out: IC50): 1.17 µM
- Maximal inhibition % (DU145 cells; Table 26, DU145, 72 hours): 97.55%
- OD value 1 (MDA-MB-468 cells; 0.400 μM, replicate 1): 0.313
- OD value 2 (MDA-MB-468 cells; 0.400 μM, replicate 2): 0.337
- OD value 1 (MDA-MB-468 cells; 0.800 μM, replicate 1): 0.275
- OD value 2 (MDA-MB-468 cells; 0.800 μM, replicate 2): 0.310
- OD value 1 (MDA-MB-468 cells; 1.600 μM, replicate 1): 0.201
- OD value 2 (MDA-MB-468 cells; 1.600 μM, replicate 2): 0.264
- OD value 1 (MDA-MB-468 cells; 3.200 μM, replicate 1): 0.151
- OD value 2 (MDA-MB-468 cells; 3.200 μM, replicate 2): 0.192
- OD value 1 (MDA-MB-468 cells; 6.250 μM, replicate 1): 0.101
- OD value 2 (MDA-MB-468 cells; 6.250 μM, replicate 2): 0.105
- OD value 1 (MDA-MB-468 cells; 12.500 μM, replicate 1): 0.066
- OD value 2 (MDA-MB-468 cells; 12.500 μM, replicate 2): 0.053
- OD value 1 (MDA-MB-468 cells; 25.000 μM, replicate 1): 0.033
- OD value 2 (MDA-MB-468 cells; 25.000 μM, replicate 2): 0.035
- OD value 1 (MDA-MB-468 cells; 50.000 μM, replicate 1): 0.064
- OD value 2 (MDA-MB-468 cells; 50.000 μM, replicate 2): 0.064
- OD value 1 (MDA-MB-468 cells; 100.000 μM, replicate 1): 0.034
- OD value 2 (MDA-MB-468 cells; 100.000 μM, replicate 2): 0.007
- inhibition at 0.4 µM (MDA-MB-468 cells; MDA-MB-468, 0.400 μM, replicate 1, read-out: % of inhibition 1): 6.01%
- inhibition at 0.4 µM (MDA-MB-468 cells; MDA-MB-468, 0.400 μM, replicate 2, read-out: % of inhibition 2): 1.17%
- inhibition at 0.8 µM (MDA-MB-468 cells; MDA-MB-468, 0.800 μM, replicate 1, read-out: % of inhibition 1): 17.4%
- inhibition at 0.8 µM (MDA-MB-468 cells; MDA-MB-468, 0.800 μM, replicate 2, read-out: % of inhibition 2): 9.08%
- inhibition at 1.6 µM (MDA-MB-468 cells; MDA-MB-468, 1.600 μM, replicate 1, read-out: % of inhibition 1): 39.6%
- inhibition at 1.6 µM (MDA-MB-468 cells; MDA-MB-468, 1.600 μM, replicate 2, read-out: % of inhibition 2): 22.6%
- inhibition at 3.2 µM (MDA-MB-468 cells; MDA-MB-468, 3.200 μM, replicate 1, read-out: % of inhibition 1): 54.7%
- inhibition at 3.2 µM (MDA-MB-468 cells; MDA-MB-468, 3.200 μM, replicate 2, read-out: % of inhibition 2): 43.6%
- inhibition at 6.25 µM (MDA-MB-468 cells; MDA-MB-468, 6.250 μM, replicate 1, read-out: % of inhibition 1): 69.7%
- inhibition at 6.25 µM (MDA-MB-468 cells; MDA-MB-468, 6.250 μM, replicate 2, read-out: % of inhibition 2): 69.1%
- inhibition at 12.5 µM (MDA-MB-468 cells; MDA-MB-468, 12.500 μM, replicate 1, read-out: % of inhibition 1): 80.2%
- inhibition at 12.5 µM (MDA-MB-468 cells; MDA-MB-468, 12.500 μM, replicate 2, read-out: % of inhibition 2): 84.4%
- inhibition at 25 µM (MDA-MB-468 cells; MDA-MB-468, 25.000 μM, replicate 1, read-out: % of inhibition 1): 90.1%
- inhibition at 25 µM (MDA-MB-468 cells; MDA-MB-468, 25.000 μM, replicate 2, read-out: % of inhibition 2): 89.6%
- inhibition at 50 µM (MDA-MB-468 cells; MDA-MB-468, 50.000 μM, replicate 1, read-out: % of inhibition 1): 80.8%
- inhibition at 50 µM (MDA-MB-468 cells; MDA-MB-468, 50.000 μM, replicate 2, read-out: % of inhibition 2): 81.1%
- inhibition at 100 µM (MDA-MB-468 cells; MDA-MB-468, 100.000 μM, replicate 1, read-out: % of inhibition 1): 89.8%
- inhibition at 100 µM (MDA-MB-468 cells; MDA-MB-468, 100.000 μM, replicate 2, read-out: % of inhibition 2): 97.8%
- IC50 (MDA-MB-468 cells; MDA-MB-468, Table 17, read-out: MDA-MB-468* 50% inhibition concentration): 3.34 µM
- IC50 (MDA-MB-468 cells; Table 26, MDA-MB-468, 72 hours, read-out: 50% viability conc.): 3.34 µM
- IC50 (MDA-MB-468 cells; Table 26, MDA-MB-468, 72 hours, read-out: IC50): 2.53 µM
- Maximal inhibition % (MDA-MB-468 cells; Table 26, MDA-MB-468, 72 hours): 93.83%
- Jurkat‡ % at 10 μM (Jurkat): 3.2%
